Converted amounts (≈) assume the structure as drawn.
Columns and labels:
Apis mellifera = conditions: acute; dermal; mortality
Bibionidae = conditions: chronic/long-term; duration: 28 days; other
Daphnia magna = conditions: chronic/long-term, duration: 21 days
Rattus norvegicus = conditions: for NOAEL: clinical signs
Adalia sp. = test: LR50; higher = less toxic; conditions: acute; duration: 48 hours; mortality

CC(C)[C@H](C(=O)O[C@H](C#N)c1cccc(Oc2ccccc2)c1)c1ccc(Cl)cc1 [Esfenvalerate] was tested, and the LD50 (Apis mellifera) was 0.06 µg/piece, the NOEC (Bibionidae) was 0.16 µg/L and the LD50 (Colinus virginianus; acute, oral, mortality) was 1310 mg/kg-day. For the same compound, the NOEC (Colinus virginianus; reproduction developmental) was 18.7 mg/kg-day, the NOEC (Daphnia magna) was 0.052 µg/L and the NOEC (Daphnia magna; reproduction) was 0.0038 µg/L. The LC50 (Oncorhynchus mykiss; acute, duration: 96 hours, mortality) was 0.1 ng/mL (≈ 0.238 nM), the NOEC (Oncorhynchus mykiss; chronic/long-term, duration: 21 days) was 0.001 µg/L and the NOAEL (Rattus norvegicus; acute) was 1.75 mg/kg-day. It also gave an LD50 (Rattus norvegicus; acute, oral, mortality) of 88.5 mg/kg, an NOAEL (Rattus norvegicus; chronic) of 1.75 mg/kg-day and an LC50 (Tagia sp.; acute, mortality) of 10.6 mg/kg. For the same compound, the NOEC (Tagia sp.; chronic/long-term) was 1.1 mg/kg and the LR50 (Adalia sp.) was 0.291 g/ha.

— EPA's ToxValDB 9.5 (doi:10.2903/j.efsa.2014.3873)
